Data published in patent publication US6114326A, “Use of cabergoline in the treatment of restless legs syndrome” (priority 1999, dated 2000).
Where two headings read alike, the source gives them in different places.

Key:
[1] = tested on: restless legs syndrome patients; experiment: Prior treatment history of the trial patients
Experimental: See also, Stiasny K., Oertel W. H., Schuiler P. (1998). Cabergoline in RLS, ENS, Nice, Abstract.
Efficacy was assessed by polysomnography and subjective ratings. […] At study entry all patients were comedicated with domperidone (20 mg TID) and five were still under levodopa therapy (400-800 mg).
Subjects. Nine patients (seven women and two men, mean age 54.1±8.7, range 38.1-64.3 years) with idiopathic RLS for 23.1±13.7 years (range 5-47 years) participated. […] At study entry five patients were on levodopa with dosages ranging from 400-800 mg. […] The remaining four patients were off any specific RLS medication during baseline investigation. […] At baseline conditions the physician considered the patients to be extremely ill (2), very ill (4) or markedly ill (3).

[2] = tested on: restless legs syndrome patients; details: 7.5 mg, cited from earlier work
[3] = tested on: restless legs syndrome patients; details: cited from earlier work
[4] = cited from earlier work
[5] = tested on: restless legs syndrome patients; details: open clinical trials of opioids; cited from earlier work
[6] = tested on: restless legs syndrome patients; details: cited from earlier work; remark: listed apart in the source
[7] = tested on: restless legs syndrome patients; details: in vivo; cited from earlier work

CC(C)C[C@H]1C(=O)N2CCC[C@H]2[C@]2(O)O[C@](NC(=O)[C@@H]3C=C4c5cccc6[nH]c(Br)c(c56)C[C@H]4N(C)C3)(C(C)C)C(=O)N12 [Bromocriptine]
side effect under prior treatment ([1]; bromocriptine 5 mg, one patient): severe arterial hypotension
patients with subjective improvement in restlessness and paresthesia compared to placebo ([2]; 1 to 3 hours prior to sleep, double blind crossover): 5 of 6
side effects ([2]; one patient): transient nasal stuffiness and lightheadedness

N[C@@H](Cc1ccc(O)c(O)c1)C(=O)O [L-dopa]
benefit of previous levodopa therapy ([1]; all patients, standard or standard and slow release): partial benefit
suppression of RLS (in words) ([3]; 100 mg with carbidopa 10 mg, most cases): completely suppresses RLS
rebound (augmentation) of PLMS in last part of the night ([3]; 100 mg with carbidopa 10 mg): often observed
rate of augmentation ([3]; 12 week study, Callado-Seidel et al.): 27%
patients with augmentation reporting 3 major symptoms of increased severity ([3]; 22 RLS patients with augmentation): 100%
rate of augmentation in PLMS patients ([3]; Allen and Earley, Sleep 1996): 31%
rate of augmentation in RLS patients ([3]; Allen and Earley, Sleep 1996): 82%
RLS patients with augmentation requiring a medication change ([3]; Allen and Earley): 50%
patients who responded to levodopa ([3]; Earley and Allen): 21 of 51
time until patients no longer respond well (tolerance) ([3]; L-Dopa or L-Dopa plus dopa-decarboxylase-inhibitor, usually): ≤ 6 months
patients reporting increased movement in other body parts ([3]; RLS patients with augmentation): 7%
tolerance (in words) ([3]; RLS): common
reduction of RLS at bedtime and PLMS throughout the night (in words) ([3]; double-blind PSG study, administered twice at night): significant reduction
efficacy in RLS (in words) ([3]; with peripheral carboxylase inhibitor, 10:1 ratio): effective
half-life ([4]; levodopa, regular release): 2 to 4 h

C=CCN1CC[C@]23c4c5ccc(O)c4O[C@H]2C(=O)CC[C@@]3(O)[C@H]1C5 [naloxone]
reversal by naloxone (in words) [5]: reversible

CCCN1C[C@H](CSC)C[C@@H]2c3cccc4[nH]cc(c34)C[C@H]21 [Pergolide]
effect in patients who developed augmentation under levodopa ([6]; 6 month open label trial): some effect
patients who responded well to pergolide ([6]; Earley and Allen): 19 of 26
pergolide patients with augmentation ([6]; Earley and Allen): 4 of 26
side effects ([6]; pergolide with low dose L-dopa): orthostatic hypotension and gastrointestinal problems
patients suffering from augmentation ([6]; pergolide, Earley and Allen): 15%
augmentation under pergolide (in words) ([6]; two open trials, follow-up 6 to 28 and 2 to 39 months): to a lower degree and less severe
clinical improvement (in words) ([6]; with low dose L-dopa, patients not responding to L-dopa alone): clinical improvement
half-life ([4]; pergolide): 7 to 16 h

NCC1(CC(=O)O)CCCCC1 [gabapentin]
possible side effects [7]: dizziness, sleepiness, fatigue, increased appetite, and unsteadiness
